Consider 2 molecules from paper PMC5066224, “A Novel Resveratrol Based Tubulin Inhibitor Induces Mitotic Arrest and Activates Apoptosis in Cancer Cells” (Scientific Reports, 2016).

One assay deals with A549 cells. The assay can be described thus: Immunofluorescence microscopy of spindle microtubule organisation. Type of assay: cell-based, human. To be noted: A549, positive control, compared to untreated cells. Here is the method: Immunofluorescence microscopy was performed as previously described. A549 cells were grown on coverslips coated with gelatin (0.1%). […] After 24 h of the treatment nonspecific antibody binding sites were blocked using FBS following which cells were incubated with antitubulin antibody (1:500) at RT. Coverslips were washed in PBS, incubated in biotinylated antimouse secondary antibody (1:500; RT for 1 h) followed by Streptavidin-FITC (1:200). Finally, cells were mounted with DABCO and images were captured using Zeiss Fluorescence microscope and analyzed using Axio vision software. Colchicine treated cells were used as a positive control.

The subject of a further assay is CEM cells. The assay can be described thus: Intracellular ROS production (H2DCFDA, flow cytometry). It counts as cell-based, Human. To be noted: 5 to 60 min. Here is the method: Intracellular ROS generation in cells was assessed using the oxidation-sensitive fluorescent probe 2,7-dichlorodihydro fluorescein diacetate (H2DCFDA) as previously described. CEM cells were treated with SS28 (5 μM) for 5, 10, 15, 30 and 60 min, harvested, washed and incubated with H2DCFDA (30 min at 37 °C) and then fluorescence intensity was analyzed by flow cytometry. H2O2 was used as the positive control.

Turning to `COc1cc2c(c(OC)c1OC)-c1ccc(OC)c(=O)cc1[C@@H](NC(C)=O)CC2` [Colchicine, reference compound], the “effect on chromosomes and mitosis (immunofluorescence)” value in the assay on A549 cells is “chromosome condensation and metaphase arrest was observed”.

`OO` [H2O2, reference compound]: the “intracellular ROS production” value in the assay with CEM cells was “distinct ROS production”.
